Species: Rattus norvegicus
Test: DrugMatrix - Regimen: Daily Repeat
Type: toxicity, organism-based, Sprague-Dawley
Design: regimen Daily Repeat, gender Male, age 6-8 weeks
Details: in vivo, iv, vehicle 100 % SALINE; for ABSOLUTE BASOPHIL / ABSOLUTE EOSINOPHIL / ABSOLUTE LYMPHOCYTE / ABSOLUTE MONOCYTE / ABSOLUTE SEGMENTED NEUTROPHIL / BASOPHIL / EOSINOPHIL / ERYTHROCYTE COUNT / HEMATOCRIT / HEMOGLOBIN / LEUKOCYTE COUNT / LYMPHOCYTE / MEAN CORPUSCULAR HEMOGLOBIN / MEAN CORPUSCULAR HEMOGLOBIN CONCENTRATION / MEAN CORPUSCULAR VOLUME / MONOCYTE / NEUTROPHIL / NUCLEATED RED BLOOD CELLS / PLATELET COUNT: tissue Blood; for ALANINE AMINOTRANSFERASE / ALBUMIN / ALKALINE PHOSPHATASE / ASPARTATE AMINOTRANSFERASE / BLOOD UREA NITROGEN / CARBON DIOXIDE / CHLORIDE / CHOLESTEROL / CREATINE PHOSPHOKINASE / CREATININE / GLUCOSE / LACTATE DEHYDROGENASE / LIPASE / PHOSPHORUS / POTASSIUM / SODIUM / TOTAL BILIRUBIN / TOTAL PROTEIN / URIC ACID: tissue Plasma
[1] = 0.07 mg/kg, 72 h, dose level Low, time 3 day
[2] = 0.07 mg/kg, 120 h, dose level Low, time 5 day
[3] = […], 72 h, dose 0.16 mg/Kg, dose level High, time 3 day
[4] = […], 120 h, dose 0.16 mg/Kg, dose level High, time 5 day

## CNC(=O)Oc1ccc2c(c1)[C@]1(C)CCN(C)[C@@H]1N2C [PHYSOSTIGMINE]
[1]
  ABSOLUTE BASOPHIL: 0 CELLS/uL
  ABSOLUTE EOSINOPHIL: 271.33 CELLS/uL
  ABSOLUTE LYMPHOCYTE: 11715.67 CELLS/uL
  ABSOLUTE MONOCYTE: 88.33 CELLS/uL
  ABSOLUTE SEGMENTED NEUTROPHIL: 1491.33 CELLS/uL
  BASOPHIL: 0%
  EOSINOPHIL: 2%
  ERYTHROCYTE COUNT: 5.08 x10E6/uL
  HEMATOCRIT: 32.57%
  HEMOGLOBIN: 12.27 G/DL
  LEUKOCYTE COUNT: 13.57 x10E3/uL
  LYMPHOCYTE: 86.67%
  MEAN CORPUSCULAR HEMOGLOBIN: 24.13 pg
  MEAN CORPUSCULAR HEMOGLOBIN CONCENTRATION: 37.67 G/DL
  MEAN CORPUSCULAR VOLUME: 64.1 fL
  MONOCYTE: 0.67%
  NEUTROPHIL: 10.67%
  NUCLEATED RED BLOOD CELLS: 0 /100WBC
  PLATELET COUNT: 1091 x10E3/uL
  ALANINE AMINOTRANSFERASE: 64.33 u/L
  ALBUMIN: 4.03 G/DL
  ALKALINE PHOSPHATASE: 342.67 u/L
  ASPARTATE AMINOTRANSFERASE: 99.67 u/L
  BLOOD UREA NITROGEN: 14.67 mg/dL
  CARBON DIOXIDE: 24.67 mmol/L
  CHLORIDE: 105.33 MEQ/L
  CHOLESTEROL: 67.33 mg/dL
  CREATINE PHOSPHOKINASE: 386 u/L
  CREATININE: 0.14 mg/dL
  GLUCOSE: 161.67 mg/dL
  LACTATE DEHYDROGENASE: 95.33 u/L
  LIPASE: 7.67 u/L
  PHOSPHORUS: 12.37 mg/dL
  POTASSIUM: 5.92 MEQ/L
  SODIUM: 144.47 MEQ/L
  TOTAL BILIRUBIN: 0.17 mg/dL
  TOTAL PROTEIN: 5.73 G/DL
  URIC ACID: 1.23 mg/dL
[2]
  ABSOLUTE BASOPHIL: 0 CELLS/uL
  ABSOLUTE EOSINOPHIL: 138.33 CELLS/uL
  ABSOLUTE LYMPHOCYTE: 16178.33 CELLS/uL
  ABSOLUTE MONOCYTE: 247.67 CELLS/uL
  ABSOLUTE SEGMENTED NEUTROPHIL: 2735.67 CELLS/uL
  BASOPHIL: 0%
  EOSINOPHIL: 0.67%
  ERYTHROCYTE COUNT: 5.42 x10E6/uL
  HEMATOCRIT: 34.33%
  HEMOGLOBIN: 13.27 G/DL
  LEUKOCYTE COUNT: 19.3 x10E3/uL
  LYMPHOCYTE: 84%
  MEAN CORPUSCULAR HEMOGLOBIN: 24.43 pg
  MEAN CORPUSCULAR HEMOGLOBIN CONCENTRATION: 38.7 G/DL
  MEAN CORPUSCULAR VOLUME: 63.27 fL
  MONOCYTE: 1.33%
  NEUTROPHIL: 14%
  NUCLEATED RED BLOOD CELLS: 0 /100WBC
  PLATELET COUNT: 1244.33 x10E3/uL
  ALANINE AMINOTRANSFERASE: 50 u/L
  ALBUMIN: 4.33 G/DL
  ALKALINE PHOSPHATASE: 370 u/L
  ASPARTATE AMINOTRANSFERASE: 86.67 u/L
  BLOOD UREA NITROGEN: 22 mg/dL
  CARBON DIOXIDE: 24 mmol/L
  CHLORIDE: 102 MEQ/L
  CHOLESTEROL: 62.33 mg/dL
  CREATINE PHOSPHOKINASE: 479.33 u/L
  CREATININE: 0.2 mg/dL
  GLUCOSE: 168 mg/dL
  LACTATE DEHYDROGENASE: 93.67 u/L
  LIPASE: 8 u/L
  PHOSPHORUS: 13.33 mg/dL
  POTASSIUM: 6.49 MEQ/L
  SODIUM: 141.5 MEQ/L
  TOTAL BILIRUBIN: 0.2 mg/dL
  TOTAL PROTEIN: 6.17 G/DL
  URIC ACID: 1.63 mg/dL
[3]
  ABSOLUTE BASOPHIL: 0 CELLS/uL
  ABSOLUTE EOSINOPHIL: 107 CELLS/uL
  ABSOLUTE LYMPHOCYTE: 10987.67 CELLS/uL
  ABSOLUTE MONOCYTE: 71.33 CELLS/uL
  ABSOLUTE SEGMENTED NEUTROPHIL: 1134 CELLS/uL
  BASOPHIL: 0%
  EOSINOPHIL: 1%
  ERYTHROCYTE COUNT: 5.42 x10E6/uL
  HEMATOCRIT: 33.77%
  HEMOGLOBIN: 13 G/DL
  LEUKOCYTE COUNT: 12.3 x10E3/uL
  LYMPHOCYTE: 88.33%
  MEAN CORPUSCULAR HEMOGLOBIN: 24.03 pg
  MEAN CORPUSCULAR HEMOGLOBIN CONCENTRATION: 38.57 G/DL
  MEAN CORPUSCULAR VOLUME: 62.37 fL
  MONOCYTE: 0.67%
  NEUTROPHIL: 10%
  NUCLEATED RED BLOOD CELLS: 0 /100WBC
  PLATELET COUNT: 1231 x10E3/uL
  ALANINE AMINOTRANSFERASE: 56.33 u/L
  ALBUMIN: 4.17 G/DL
  ALKALINE PHOSPHATASE: 305 u/L
  ASPARTATE AMINOTRANSFERASE: 87.33 u/L
  BLOOD UREA NITROGEN: 15.33 mg/dL
  CARBON DIOXIDE: 27.67 mmol/L
  CHLORIDE: 107 MEQ/L
  CHOLESTEROL: 78.67 mg/dL
  CREATINE PHOSPHOKINASE: 187.33 u/L
  CREATININE: 0.13 mg/dL
  GLUCOSE: 159.33 mg/dL
  LACTATE DEHYDROGENASE: 115.33 u/L
  LIPASE: 8.67 u/L
  PHOSPHORUS: 13.93 mg/dL
  POTASSIUM: 6.15 MEQ/L
  SODIUM: 147.9 MEQ/L
  TOTAL BILIRUBIN: 0.17 mg/dL
  TOTAL PROTEIN: 5.83 G/DL
  URIC ACID: 1.43 mg/dL
[4]
  ABSOLUTE BASOPHIL: 0 CELLS/uL
  ABSOLUTE EOSINOPHIL: 171.67 CELLS/uL
  ABSOLUTE LYMPHOCYTE: 8706.33 CELLS/uL
  ABSOLUTE MONOCYTE: 43.33 CELLS/uL
  ABSOLUTE SEGMENTED NEUTROPHIL: 3645.33 CELLS/uL
  BASOPHIL: 0%
  EOSINOPHIL: 1.33%
  ERYTHROCYTE COUNT: 5.7 x10E6/uL
  HEMATOCRIT: 35.8%
  HEMOGLOBIN: 13.57 G/DL
  LEUKOCYTE COUNT: 12.57 x10E3/uL
  LYMPHOCYTE: 68.67%
  MEAN CORPUSCULAR HEMOGLOBIN: 23.8 pg
  MEAN CORPUSCULAR HEMOGLOBIN CONCENTRATION: 37.9 G/DL
  MEAN CORPUSCULAR VOLUME: 62.8 fL
  MONOCYTE: 0.33%
  NEUTROPHIL: 29.67%
  NUCLEATED RED BLOOD CELLS: 0 /100WBC
  PLATELET COUNT: 1062 x10E3/uL
  ALANINE AMINOTRANSFERASE: 52.67 u/L
  ALBUMIN: 4.03 G/DL
  ALKALINE PHOSPHATASE: 416.33 u/L
  ASPARTATE AMINOTRANSFERASE: 80 u/L
  BLOOD UREA NITROGEN: 15 mg/dL
  CARBON DIOXIDE: 26 mmol/L
  CHLORIDE: 104 MEQ/L
  CHOLESTEROL: 60 mg/dL
  CREATINE PHOSPHOKINASE: 226.67 u/L
  CREATININE: 0.22 mg/dL
  GLUCOSE: 181 mg/dL
  LACTATE DEHYDROGENASE: 200 u/L
  LIPASE: 7.67 u/L
  PHOSPHORUS: 13.3 mg/dL
  POTASSIUM: 6.09 MEQ/L
  SODIUM: 146.53 MEQ/L
  TOTAL BILIRUBIN: 0.13 mg/dL
  TOTAL PROTEIN: 6.43 G/DL
  URIC ACID: 1.77 mg/dL

Reference: ChEMBL document CHEMBL3885881, “DrugMatrix”
